Assay results from US10894820B2, “Antiretroviral drug targeting human endogenous retrovirus” (priority 2014, dated 2021).

Assays:
[1] = healthy volunteers, Phase 1
[2] = system: HERV-W Reverse-transcriptase (RT); test: Western blot of HERV-W pol-encoded Reverse-Transcriptase protein in CH1/CH2 cell cultures treated with GNbAC1 and/or AZT; type: cell-based, Human; conditions: CH1 and CH2 co-culture; AZT 1 μg/ml, GNbAC1 300 μg/ml; versus mock-treated cells
Procedure: Human CH1 and CH2 cells (1:1) cells were co-cultured for optimizing the growth of CH2 cells and maintained in 6-well plates (CC7672-7506; CytoOne) at a density of 1.10^6 cell/well in IMDM medium (Ser. No. 12/440,053; Lifetech) supplemented with 10% fetal calf serum (Ser. No. 10/270,106; Invitrogen), 1% penicillin/streptomycin (P4333; Sigma) at 37° C. with 5% CO2. Cells were treated with i) AZT (1 μg/ml, A21-69; Sigma), ii) GNbAC1 (300 μg/ml, T950111-A; Polymun), iii) AZT+GNbAC1 or corresponding controls with GNbAC1 buffer [20 mM His, 5% Sucrose (w/v), 0.01% Tween 20 (w/v)].
CH1 and CH2 cells were resuspended in 200 μl of RIPA buffer (R0278, SIGMA) containing cOmplete® anti-phosphatase inhibitor cocktail (04 693 132001; Roche) and 0.05% LPG (326495-22-1; Avanti Polar) at 4° C., incubated for 2 hours at 26° C. on a rotating platform and centrifuged at 10000 g for 20 minutes at 26° C. Supernatant were collected and stored at −20° C.
Protein extracts were diluted (2:1) in 2× Laemmli buffer (Biorad) and heated for 5 minutes at 100° C. before loading. Proteins were separated by 7.5% sodium dodecyl sulfate-polyacrylamide gel electrophoresis (TGX, Biorad). Gels were run for a time period of 15 min at 120 mA in running buffer (Life Technologies). […] Protein of interest was detected with a colometric reaction (Opti 4-CN, Biorad), according to the provided protocol. […]

[3] = system: HERV-W related transcripts (env and pol mRNA); test: HERV-W related transcripts levels by RT-qPCR in PBMC of MS patients treated with GNbAC1 (GNC002 Phase IIa trial); type: in vivo, human; conditions: for all HERV-W transcript levels compared to basal values at inclusion: at the 6th monthly GNbAC1 administration, relative expression to GUS B
Procedure: The present GNC002 Phase IIa clinical trial was performed to assess the safety profile and the pharmacokinetics of GNbAC1 at 2 and 6 mg/kg in 10 MS patients. GNC002 consisted in a 12 months longitudinal study, in which GNbAC1 is administered on a monthly basis.
The present analysis was conducted on samples collected during the first 6 months of GNC002, where HERV-W related transcripts levels were assessed by real time quantitative polymerase chain reaction (RT-qPCR) in peripheral blood mononuclear cells (PBMC) of enrolled patients. HERV-W transcripts are assessed by different primers/probe sets as follows: MSRV-env, HERV-W-UNO, HERV-W-UNO2,
Briefly, the first step consisted in the extraction of total RNA from PBMC samples. Samples were PBMC isolated from blood collected on CPT tubes and frozen in 0.5 ml of DMSO 10% in Foetal Calf Serum. After thawing, PBMC samples were washed with ice-cold PBS and total RNAs were extracted with QIAamp RNeasy Mini Kit. Then, cDNAs were prepared by retro-transcribing all mRNA contained in previously extracted total RNAs. Quantitative PCRs were conducted on these cDNAs, with addition of an internal standard used as an inter-plate calibrator (allowing the standardization of the values throughout an experiment with multiple plates). Results were expressed as the relative expression of the targeted RNA (MSRV/HERV-W), by a ratio to the expression of GUS B RNA, a reference housekeeping gene with a stable expression level in MS population.
The Relative Expression of each targeted RNA within each sample is calculated as follows: Targeted RNA Relative Expression to GUS B=2^(Cq GUS B-Cq targeted RNA) Extraction Yields and Samples Exclusion
For each patient included in the study, PBMCs were isolated from blood sample at Day 1 (inclusion), Day 2, Day 8, Day 15, and Day 29. Afterwards, patients have received 5 additional monthly GNbAC1 administrations and PBMCs were isolated from blood sample before each infusion of antibody. Thus, the following results represent the variation of each HERV-W related transcript over the first 6 months of GNC002 study.
The second GNbAC1 administration occurred at different time points from Day 1, depending on patients. Thus, the mean variation of HERV-W related transcripts was assessed with blood samples collected before each GNbAC1 administration only.

## GNbAC1: humanized IgG4 monoclonal antibody directed against HERV-W/MSRV Envelope protein; heavy chain SEQ ID No: 9, light chain SEQ ID No: 10
[1]
  pharmacokinetics: linear
  safety profile: favorable
[2]
  HERV-W RT protein expression (Western blot signal): minor effects
[3]; 2 mg/kg cohort, PBMC
  all HERV-W transcript levels compared to basal values at inclusion: decrease
[3]; 6 mg/kg cohort, PBMC
  all HERV-W transcript levels compared to basal values at inclusion: confirmed
[3]; after three and six months of treatment
  env mRNA and pol mRNA levels compared to levels before treatment: parallel and progressive decrease
[3]; injected once a month over six months, PBMC, pol qPCR protocol
  HERV-W pol mRNA level: decrease is also marked
